Species: Rattus norvegicus
Test: Open TG-GATES - Regimen: Single
Type: toxicity, organism-based, Sprague-Dawley
Parameters: regimen Single, gender Male, age 6 weeks
Conditions: in vivo, po, 300 mg/kg, route gavage, dose level Low; for APTT / Bas / Eos / Fbg / Hb / Ht / Lym / MCH / MCHC / MCV / Mono / Neu / PT / Plat / RBC / Ret / WBC: tissue Blood; for KIDNEY_L / KIDNEY_R / KIDNEY_TOTAL: tissue Kidney; for LIVER: tissue Liver; for A/G / ALP / ALT / AST / BUN / CRE / Ca / Cl / DBIL / GLC / IP / K / LDH / Na / PL / RALB / TBIL / TC / TG / TP / gamma-GTP: tissue Plasma

In the case of `CC(=O)[C@@]1(O)CC[C@H]2[C@@H]3C=C(Cl)C4=CC(=O)CC[C@]4(C)[C@H]3CC[C@@]21C` [CHLORMADINONE], the TERMINAL_BW (3 h) is reported as 219.9 g, the APTT (3 h) is reported as 22.1 s and the Bas (3 h) is reported as 0%. For the same compound, the Eos (3 h) was 1%, the Fbg (3 h) was 310.8 mg/dL and the Hb (3 h) was 13 g/dL. It also gave a Ht (3 h) of 40.3%, a Lym (3 h) of 75% and an MCH (3 h) of 20.5 pg. The MCHC (3 h) was 32.4%, the MCV (3 h) was 63.3 fL and the Mono (3 h) was 1.8%. It also gave a Neu (3 h) of 22.4%, a PT (3 h) of 15.2 s and a Plat (3 h) of 115.5 x10_4/uL. The RBC (3 h) was 637.8 x10_4/ul, the Ret (3 h) was 7.3% and the WBC (3 h) was 52.5 x10_2/uL. For the same compound, the KIDNEY_L (3 h) was 0.9 g, the KIDNEY_R (3 h) was 1 g and the KIDNEY_TOTAL (3 h) was 1.9 g. The LIVER (3 h) was 10.4 g, the A/G (3 h) was 1.3 and the ALP (3 h) was 1442.2 IU/L. For the same compound, the ALT (3 h) was 48 IU/L, the AST (3 h) was 78.6 IU/L and the BUN (3 h) was 16 mg/dL. It also gave a CRE (3 h) of 0.2 mg/dL, a Ca (3 h) of 11 mg/dL and a Cl (3 h) of 105.4 meq/L. It also gave a DBIL (3 h) of 0 mg/dL, a GLC (3 h) of 181.4 mg/dL and an IP (3 h) of 9.3 mg/dL. For the same compound, the K (3 h) was 4.2 meq/L, the LDH (3 h) was 140.6 IU/L and the Na (3 h) was 143 meq/L. The PL (3 h) was 147.2 mg/dL, the RALB (3 h) was 3.1 g/dL and the TBIL (3 h) was 0.024 mg/dL. For the same compound, the TC (3 h) was 79.8 mg/dL, the TG (3 h) was 51.6 mg/dL and the TP (3 h) was 5.6 g/dL. For the same compound, the gamma-GTP (3 h) was 1.6 IU/L, the TERMINAL_BW (6 h) was 217.9 g and the APTT (6 h) was 24.4 s. The Bas (6 h) was 0%, the Eos (6 h) was 0.8% and the Fbg (6 h) was 317.6 mg/dL. The Hb (6 h) was 13.1 g/dL, the Ht (6 h) was 40.7% and the Lym (6 h) was 77.2%. The MCH (6 h) was 20.6 pg, the MCHC (6 h) was 32.3% and the MCV (6 h) was 63.8 fL. It also gave a Mono (6 h) of 1.8%, a Neu (6 h) of 20% and a PT (6 h) of 15.6 s. It also gave a Plat (6 h) of 106.2 x10_4/uL, an RBC (6 h) of 638.2 x10_4/ul and a Ret (6 h) of 7.9%. For the same compound, the WBC (6 h) was 68.9 x10_2/uL, the KIDNEY_L (6 h) was 1 g and the KIDNEY_R (6 h) was 1 g. For the same compound, the KIDNEY_TOTAL (6 h) was 2 g, the LIVER (6 h) was 10.3 g and the A/G (6 h) was 1.3. It also gave an ALP (6 h) of 1567.8 IU/L, an ALT (6 h) of 39.4 IU/L and an AST (6 h) of 72.8 IU/L. For the same compound, the BUN (6 h) was 12.6 mg/dL, the CRE (6 h) was 0.1 mg/dL and the Ca (6 h) was 10.5 mg/dL. For the same compound, the Cl (6 h) was 105.8 meq/L, the DBIL (6 h) was 0 mg/dL and the GLC (6 h) was 181.8 mg/dL. The IP (6 h) was 9.2 mg/dL, the K (6 h) was 4.4 meq/L and the LDH (6 h) was 159.6 IU/L. The Na (6 h) was 141.4 meq/L, the PL (6 h) was 134.8 mg/dL and the RALB (6 h) was 3.1 g/dL. It also gave a TBIL (6 h) of 0.032 mg/dL, a TC (6 h) of 80.8 mg/dL and a TG (6 h) of 35 mg/dL. The TP (6 h) was 5.6 g/dL, the gamma-GTP (6 h) was 1.8 IU/L and the TERMINAL_BW (9 h) was 219.9 g. The APTT (9 h) was 24.1 s, the Bas (9 h) was 0% and the Eos (9 h) was 0.2%. It also gave a Fbg (9 h) of 325.6 mg/dL, a Hb (9 h) of 13.2 g/dL and a Ht (9 h) of 41%. It also gave a Lym (9 h) of 79.4%, an MCH (9 h) of 20.2 pg and an MCHC (9 h) of 32%. The MCV (9 h) was 63.1 fL, the Mono (9 h) was 1% and the Neu (9 h) was 18.8%. The PT (9 h) was 15.6 s, the Plat (9 h) was 113.9 x10_4/uL and the RBC (9 h) was 651.2 x10_4/ul. It also gave a Ret (9 h) of 7.9%, a WBC (9 h) of 52.5 x10_2/uL and a KIDNEY_L (9 h) of 1 g. The KIDNEY_R (9 h) was 1 g, the KIDNEY_TOTAL (9 h) was 2 g and the LIVER (9 h) was 10.4 g. For the same compound, the A/G (9 h) was 1.3, the ALP (9 h) was 1458.4 IU/L and the ALT (9 h) was 39.4 IU/L. It also gave an AST (9 h) of 72 IU/L, a BUN (9 h) of 14.2 mg/dL and a CRE (9 h) of 0.1 mg/dL. For the same compound, the Ca (9 h) was 10.8 mg/dL, the Cl (9 h) was 105.4 meq/L and the DBIL (9 h) was 0 mg/dL. It also gave a GLC (9 h) of 201.8 mg/dL, an IP (9 h) of 8.9 mg/dL and a K (9 h) of 4.5 meq/L. The LDH (9 h) was 153.6 IU/L, the Na (9 h) was 140.6 meq/L and the PL (9 h) was 152 mg/dL. It also gave an RALB (9 h) of 3.2 g/dL, a TBIL (9 h) of 0.026 mg/dL and a TC (9 h) of 83 mg/dL. The TG (9 h) was 79 mg/dL, the TP (9 h) was 5.6 g/dL and the gamma-GTP (9 h) was 1.6 IU/L. It also gave a TERMINAL_BW (24 h) of 225.1 g, an APTT (24 h) of 25.2 s and a Bas (24 h) of 0%. The Eos (24 h) was 1.2%, the Fbg (24 h) was 336.2 mg/dL and the Hb (24 h) was 13.8 g/dL. For the same compound, the Ht (24 h) was 41.9%, the Lym (24 h) was 80.4% and the MCH (24 h) was 21.1 pg. It also gave an MCHC (24 h) of 32.9%, an MCV (24 h) of 64 fL and a Mono (24 h) of 2.4%. It also gave a Neu (24 h) of 15.2%, a PT (24 h) of 15.5 s and a Plat (24 h) of 121.2 x10_4/uL. It also gave an RBC (24 h) of 654.4 x10_4/ul, a Ret (24 h) of 7.7% and a WBC (24 h) of 124 x10_2/uL. The KIDNEY_L (24 h) was 1 g, the KIDNEY_R (24 h) was 1 g and the KIDNEY_TOTAL (24 h) was 2 g. For the same compound, the LIVER (24 h) was 11 g, the A/G (24 h) was 1.3 and the ALP (24 h) was 1795.2 IU/L. For the same compound, the ALT (24 h) was 46.2 IU/L, the AST (24 h) was 73 IU/L and the BUN (24 h) was 18.8 mg/dL. The CRE (24 h) was 0.2 mg/dL, the Ca (24 h) was 10.6 mg/dL and the Cl (24 h) was 106.4 meq/L. For the same compound, the DBIL (24 h) was 0 mg/dL, the GLC (24 h) was 184 mg/dL and the IP (24 h) was 8.1 mg/dL. For the same compound, the K (24 h) was 4.5 meq/L, the LDH (24 h) was 204.8 IU/L and the Na (24 h) was 141 meq/L. The PL (24 h) was 169.2 mg/dL, the RALB (24 h) was 3.1 g/dL and the TBIL (24 h) was 0.004 mg/dL. The TC (24 h) was 83.8 mg/dL, the TG (24 h) was 175 mg/dL and the TP (24 h) was 5.6 g/dL. It also gave a gamma-GTP (24 h) of 2 IU/L.

Source: ChEMBL document CHEMBL3885861, “Open TG-GATES”
